Assay results reported in PMC10269775, “Penicillin-Binding Protein Occupancy Dataset for 18 β-Lactams and 4 β-Lactamase Inhibitors in Neisseria gonorrhoeae” (Microbiology Spectrum, 2023).
In brackets after ≈: the same amount, converted by molar mass. Read-outs that look alike come from different tables or passages of the source.

Columns and labels:
PBP2 [1] = molecular target: T1, PBP2 (Neisseria gonorrhoeae, UniProt P08149, H541N); assay: PBP-binding assay (Bocillin FL) in isolated membrane preparations; design: species or system Neisseria gonorrhoeae ATCC 19424; conditions: membrane preparation, 30 min drug then Bocillin FL
T1 construct: endogenous in cells; host or cells: N. gonorrhoeae ATCC 19424, isolated membrane preparation

PBP3 [2] = molecular target: T2, PBP3 (Neisseria gonorrhoeae, UniProt Q5FAB9); conditions: read-out: IC50 PBP3; strain ATCC 19424; membrane preparation, 30 min drug then Bocillin FL
T2 sequence (Q5FAB9 22-469): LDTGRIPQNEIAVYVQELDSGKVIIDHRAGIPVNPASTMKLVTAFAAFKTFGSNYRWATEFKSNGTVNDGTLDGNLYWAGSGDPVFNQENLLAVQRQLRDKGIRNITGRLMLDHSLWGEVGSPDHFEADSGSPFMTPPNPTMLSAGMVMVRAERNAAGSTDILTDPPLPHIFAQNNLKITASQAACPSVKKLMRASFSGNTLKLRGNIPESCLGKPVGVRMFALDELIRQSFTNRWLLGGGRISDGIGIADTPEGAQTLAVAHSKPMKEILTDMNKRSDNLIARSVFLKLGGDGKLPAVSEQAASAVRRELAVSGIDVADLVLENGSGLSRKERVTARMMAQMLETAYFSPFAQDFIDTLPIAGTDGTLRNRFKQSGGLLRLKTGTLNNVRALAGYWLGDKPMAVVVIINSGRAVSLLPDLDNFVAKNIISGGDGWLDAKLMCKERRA

PBP1 [3] = molecular target: T3, PBP1 (Neisseria gonorrhoeae, UniProt O05131); assay: PBP-binding assay (Bocillin FL) in isolated membrane preparations; conditions: strain ATCC 19424
T3 construct: endogenous in cells; host or cells: N. gonorrhoeae ATCC 19424, isolated membrane preparation
Source text: (§1) Bacterial membranes were collected by ultracentrifugation.

[4] = system: N. gonorrhoeae ATCC 49226; assay: MIC, CLSI broth microdilution; assay type: cell-based, Neisseria gonorrhoeae; conditions: for MIC: Neisseria gonorrhoeae, ATCC49226, strain ATCC 49226; for MIC increase for strain ATCC 49226: ATCC 49226 versus ATCC 19424
PBP1 [5] = molecular target: T4, PBP1 (Neisseria gonorrhoeae, UniProt O05131, A375T/F666S); assay: PBP-binding assay (Bocillin FL) in isolated membrane preparations; design: species or system Neisseria gonorrhoeae ATCC 49226
T4 construct: endogenous in cells; host or cells: N. gonorrhoeae ATCC 49226, isolated membrane preparation
Source text: as §1

PBP3 [6] = molecular target: T2, PBP3; conditions: read-out: IC50 PBP3; strain ATCC 49226; membrane preparation, 30 min drug then Bocillin FL
PBP2 [7] = molecular target: T5, PBP2 (Neisseria gonorrhoeae, UniProt P08149, A510V/A516G/A574V/F504L/H541N/I556V/I566V/K555Q/P552V); assay: biochemical; assay type: binding, Neisseria gonorrhoeae ATCC 49226
T5 construct: endogenous in cells; host or cells: N. gonorrhoeae ATCC 49226, isolated membrane preparation

PBP1, PBP2 and PBP3 [8] = molecular target: PBP1, PBP2 and PBP3 (Neisseria gonorrhoeae, UniProt P08149, H541N); assay type: binding, Neisseria gonorrhoeae ATCC 19424; conditions: read-out: min. IC50 (minimum observed IC50 value); strain ATCC 19424
[9] = system: N. gonorrhoeae ATCC 19424; assay: MIC, CLSI broth microdilution; assay type: cell-based; conditions: Neisseria gonorrhoeae, ATCC19424, strain ATCC 19424
PBP1, PBP2 and PBP3 [10] = molecular target: T6, PBP1, PBP2 and PBP3 (Neisseria gonorrhoeae, UniProt Q5FAB9); assay type: binding, Neisseria gonorrhoeae ATCC 49226; conditions: read-out: min. IC50 (minimum observed IC50 value); strain ATCC 49226
T6 sequence (Q5FAB9 22-469): T2 sequence (Q5FAB9 22-469)

PBP2 [11] = molecular target: PBP2 (Neisseria gonorrhoeae, UniProt P08149); conditions: read-out: IC50 for PBP2; across both strains ATCC 19424 and ATCC 49226
PBP1, PBP2 and PBP3 [12] = molecular target: PBP1, PBP2 and PBP3 (Neisseria gonorrhoeae, UniProt P08149, A510V/A516G/A574V/F504L/H541N/I556V/I566V/K555Q/P552V); assay type: binding, Neisseria gonorrhoeae ATCC 49226; conditions: read-out: min. IC50 (minimum observed IC50 value); strain ATCC 49226
[13] = membrane preparation, 30 min drug then Bocillin FL, read-out: IC50 PBP1 (converted)
[14] = IC50 PBP1, strain ATCC 49226, membrane preparation, 30 min drug then Bocillin FL
[15] = IC50 PBP2, strain ATCC 49226, membrane preparation, 30 min drug then Bocillin FL

Compound | IC50 (PBP2 [1]; strain ATCC 19424, read-out: IC50 PBP2 (converted)) [µM] | IC50 (PBP3 [2]) [µM] | IC50 (PBP1 [3]; [13]) [µM] | MIC ([4]; read-out: MIC) [µg/mL] | MIC ([4]; read-out: MIC (Table S1)) [µg/mL] | IC50 (PBP1 [5]; [14]) [µM] | IC50 (PBP3 [6]) [µM] | IC50 (PBP2 [7]; [15]) [µM] | IC50 (PBP1, PBP2 and PBP3 [8]) [µM] | MIC ([9]; read-out: MIC) [µg/mL] | MIC ([9]; read-out: MIC (Table S1)) [µg/mL] | IC50 (PBP1, PBP2 and PBP3 [10]) [µM] | IC50 (PBP2 [1]; IC50 PBP2, strain ATCC 19424) [µM] | MIC increase for strain ATCC 49226 [4] [fold] | IC50 (PBP2 [11]) [µM] | IC50 (PBP1, PBP2 and PBP3 [12]) [µM] | IC50 (PBP1 [5]; IC50 PBP1 (Table S1), strain ATCC 49226) [µM] | IC50 (PBP2 [7]; IC50 PBP2 (Table S1), strain ATCC 49226) [µM] | IC50 (PBP1 [3]; read-out: IC50 PBP1 (Table S1) (converted)) [µM]
CC1(C)S[C@@H]2[C@H](NC(=O)[C@H](C(=O)O)c3ccsc3)C(=O)N2[C@H]1C(=O)O [TIC, ticarcillin] | 0.494 | 2.73 | > 5.2 | 0.5 (≈ 1.3 µM) | 0.5 (≈ 1.3 µM) | > 5.2 | 1.64 | > 5.2 | 0.494 | 0.016 (≈ 0.0416 µM) | 0.016 (≈ 0.0416 µM) | 1.64 |  |  |  |  |  |  | 
C=CC1=C(C(=O)O)N2C(=O)[C@@H](NC(=O)/C(=N\OCC(=O)O)c3csc(N)n3)[C@H]2SC1 [CFM, cefixime] |  | > 4.41 | 2.03 | 0.016 (≈ 0.0353 µM) | 0.016 (≈ 0.0353 µM) | > 4.41 | > 4.41 | 0.0441 | 0.0221 | 0.004 (≈ 0.00882 µM) | 0.004 (≈ 0.00882 µM) |  | 0.0221 | 4 | 0.0221 | 0.0441 |  |  | 
CO/N=C(\C(=O)N[C@@H]1C(=O)N2C(C(=O)O)=C(CSc3nc(=O)c(=O)[nH]n3C)CS[C@H]12)c1csc(N)n1 [CRO, ceftriaxone] |  |  | 3.37 | 0.002 (≈ 0.00361 µM) | 0.008 (≈ 0.0144 µM) | 3.43 |  |  |  | 0.004 (≈ 0.00721 µM) | 0.004 (≈ 0.00721 µM) |  |  |  |  |  |  |  | 
CCO/N=C(\C(=O)N[C@@H]1C(=O)N2C(C(=O)[O-])=C(Sc3nc(-c4cc[n+](C)cc4)cs3)CS[C@H]12)c1nsc(N)n1 [CPT, ceftaroline] |  | 3.14 | > 3.31 | 0.5 (≈ 0.827 µM) | 0.5 (≈ 0.827 µM) | > 3.31 | 2.13 | 0.347 | 0.248 | 0.032 (≈ 0.0529 µM) | 0.032 (≈ 0.0529 µM) |  | 0.248 | 16 |  | 0.347 |  |  | 
CO/N=C(\C(=O)N[C@@H]1C(=O)N2C(C(=O)O)=C(COC(C)=O)CS[C@H]12)c1csc(N)n1 [CTX, cefotaxime] |  | 3.14 | 4.06 | 0.008 (≈ 0.0176 µM) | 0.008 (≈ 0.0176 µM) | > 4.39 | 2.24 | 0.022 | 0.022 | 0.004 (≈ 0.00878 µM) | 0.004 (≈ 0.00878 µM) |  | 0.022 |  | 0.022 | 0.022 |  |  | 
CC1(C)S[C@@H]2[C@H](NC(=O)C(C(=O)O)c3ccccc3)C(=O)N2[C@H]1C(=O)O (stereo partly shown) [CAR, carbenicillin] |  |  | > 5.29 | 0.5 (≈ 1.32 µM) | 0.5 (≈ 1.32 µM) |  |  |  | 0.344 | 0.032 (≈ 0.0846 µM) | 0.032 (≈ 0.0846 µM) |  | 0.344 |  |  |  | > 5.29 | > 5.29 | 
CC1(C)S[C@@H]2[C@H](/N=C/N3CCCCCC3)C(=O)N2[C@H]1C(=O)O [MEC, amdinocillin] |  |  | 313 | 8 (≈ 24.6 µM) | 8 (≈ 24.6 µM) |  |  |  | 4.09 | 1 (≈ 3.07 µM) | 1 (≈ 3.07 µM) |  | 4.09 |  |  |  |  |  | 314
CC(C)(O/N=C(\C(=O)N[C@@H]1C(=O)N2C(C(=O)[O-])=C(C[n+]3ccccc3)CS[C@H]12)c1csc(N)n1)C(=O)O [CAZ, ceftazidime] |  | > 3.66 | > 3.66 | 0.032 (≈ 0.0585 µM) | 0.032 (≈ 0.0585 µM) | > 3.66 | > 3.66 | 0.0183 | 0.0183 | 0.016 (≈ 0.0293 µM) | 0.016 (≈ 0.0293 µM) |  | 0.0183 |  | 0.0183 | 0.0183 |  |  | 
